Data reported in patent publication US20070254951A1, “HIGH CONCENTRATION DINOTEFURAN FORMULATIONS” (priority 2006, published 2007).
Like-named read-outs stand apart in the source and are kept apart here.

Key:
[1] = formulation of Example 9
Text: The formulation of Example 9 was stored under variable temperatures up to 2 years to determine the stability of dinotefuran in solution.

[2] = Text: It is also desirable that the resulting formulation be stable. […] This is important because these conditions can be met in commerce. The crystallization would reduce the amount of insecticide in solution and reduce the efficacy of the solution applied to the animal.

Question: With `CNC(=N[N+](=O)[O-])NCC1CCOC1` (stereo not drawn) [Dinotefuran, 1-{(tetrahydro-3-furanyl)methyl}-2-nitro-3-methylguanidine] as the compound, how does the “Dinotefuran concentration in solution (average)” value ([1]; 40° F., 1 Mo) read?
Answer: 15.03 percent by weight

Question: And the “Dinotefuran concentration in solution (average)” value ([1]; 110° F., 3 Mo)?
Answer: 15.33 percent by weight

Question: And the “Dinotefuran concentration in solution (average)” value ([1]; 130° F., 1 Mo)?
Answer: 15.22 percent by weight

Question: What about the “Dinotefuran concentration in solution (average)” value ([1]; F/T, 1 Mo) of the same compound?
Answer: 15.05 percent by weight

Question: What about the “Dinotefuran concentration in solution (average)” value ([1]; INITIAL) of the same compound?
Answer: 15.43 percent by weight

Question: And the “Dinotefuran concentration in solution (average)” value ([1]; RT (25° C.), 3 Mo)?
Answer: 15.17 percent by weight

Question: And the “Dinotefuran concentration in solution (average)” value ([1]; RT, 1 Yr)?
Answer: 15.24 percent by weight

Question: And the “Dinotefuran concentration in solution (average)” value ([1]; RT, 2 Yrs)?
Answer: 15.735 percent by weight

Question: What about the “Dinotefuran concentration in solution (average)” value ([1]; RT, 6 Mo) of the same compound?
Answer: 15.06 percent by weight

Question: What about the “increase in concentration by including methoprene” value ([2]; methoprene at about 0.8% and below, compared to a similar formulation without methoprene) of the same compound?
Answer: ~50%

Question: What about the “increase in concentration achievable by including pyriproxyfen at low levels” value ([2]; phenyl methanol formulation, no crystal formation at 0° F. during a 1 month period) of the same compound?
Answer: ~50%

Question: What about the “dinotefuran concentration that will crystallize at 0° F. within a few days” value ([2]; typically, 0° F.) of the same compound?
Answer: over 8%
